Patent US9200001B2, “Triazolyl PDE10 inhibitors” (Merck Sharp & Dohme Corp., priority 2011, dated 2015)

What was measured:
human PDE10A2 = human PDE10A2 (Homo sapiens (Human), UniProt Q9Y233); experiment: PDE10 fluorescence polarization (IMAP FP) inhibition assay; type: biochemical; settings: FAM-labeled cAMP 50 nM, room temperature, read-out: PDE10a Ki
Summary of the method: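 Cytoplasmic lysate of AD293 cells transiently expressing human PDE10A2, incubated 30 minutes at room temperature with 50 nM FAM-labeled cAMP in Tris pH 7.2 with MgCl2. Read by IMAP fluorescence polarization; 0% inhibition set by 1% DMSO, 100% by a reference PDE10 inhibitor.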

Sequence of human PDE10A2 (Q9Y233 267-1055): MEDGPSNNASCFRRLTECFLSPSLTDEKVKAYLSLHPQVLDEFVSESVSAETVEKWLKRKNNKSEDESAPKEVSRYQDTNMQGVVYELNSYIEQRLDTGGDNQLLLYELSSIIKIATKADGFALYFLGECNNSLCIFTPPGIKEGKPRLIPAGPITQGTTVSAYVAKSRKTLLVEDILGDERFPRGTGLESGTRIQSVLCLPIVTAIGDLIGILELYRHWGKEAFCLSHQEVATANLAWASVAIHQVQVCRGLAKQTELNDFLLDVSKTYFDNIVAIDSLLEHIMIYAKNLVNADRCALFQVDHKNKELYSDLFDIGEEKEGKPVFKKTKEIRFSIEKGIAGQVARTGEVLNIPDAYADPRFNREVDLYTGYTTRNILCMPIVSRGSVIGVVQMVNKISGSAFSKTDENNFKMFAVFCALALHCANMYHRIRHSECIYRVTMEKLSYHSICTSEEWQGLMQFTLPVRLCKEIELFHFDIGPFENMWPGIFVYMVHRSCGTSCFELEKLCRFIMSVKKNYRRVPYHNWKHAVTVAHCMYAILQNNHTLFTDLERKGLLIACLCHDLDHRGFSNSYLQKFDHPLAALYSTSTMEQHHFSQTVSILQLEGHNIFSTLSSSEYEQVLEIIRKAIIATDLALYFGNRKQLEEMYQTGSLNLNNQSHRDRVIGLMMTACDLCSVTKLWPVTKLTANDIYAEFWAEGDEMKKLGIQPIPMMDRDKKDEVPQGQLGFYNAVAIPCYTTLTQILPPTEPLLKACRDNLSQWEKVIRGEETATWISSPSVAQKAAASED

SMILES | melting point [°C] | Ki (human PDE10A2) [nM]
COc1ccc(Cc2nc(C)nn2-c2cc(C3CC3c3ccc(C)cn3)nc(C)n2)cc1OC (centres unmarked) [Cpd 35, 4-(5-(3,4-dimethoxybenzyl)-3-methyl-1H-1,2,4-triazol-1-yl)-2-methyl-6-(2-(5-methylpyridin-2-yl)cyclopropyl)pyrimidine] |  | 0.21
COc1ccc(Cc2nc(C)nn2-c2cc(C3CC3c3cc4n(n3)CCC4)nc(C)n2)cc1OC (centres unmarked) [Cpd 42, 2-(2-(6-(5-(3,4-dimethoxybenzyl)-3-methyl-1H-1,2,4-triazol-1-yl)-2-methylpyrimidin-4-yl)cyclopropyl)-5,6-dihydro-4H-pyrrolo[1,2-b]pyrazole] |  | 0.5
Cc1nc(C)n(-c2cc([C@H]3C[C@@H]3c3nc4ccccc4n3C)nc(OCCF)n2)n1 (relative stereo) [Cpd 122, trans-2-{2-[6-(3,5-dimethyl-1H-1,2,4-triazol-1-yl)-2-(2-fluoroethoxy)pyrimidin-4-yl]cyclopropyl}-1-methyl-1H-benzimidazole] |  | 1.2
COc1ccc(Cc2nc(C)nn2-c2cc(/C=C/c3ccccn3)nc(C)n2)cc1OC [Cpd 19, (E)-4-(5-(3,4-dimethoxybenzyl)-3-methyl-1H-1,2,4-triazol-1-yl)-2-methyl-6-(2-(pyridin-2-yl)vinyl)pyrimidine] |  | 0.002
Cc1nc(C2CC2c2nnc(C)s2)cc(-n2nc(C)nc2C)n1 (centres unmarked) [Cpd 40, 2-(2-(6-(3,5-dimethyl-1H-1,2,4-triazol-1-yl)-2-methylpyrimidin-4-yl)cyclopropyl)-5-methyl-1,3,4-thiadiazole] |  | 124
Cc1nc([C@@H]2C[C@H]2c2nc3ccccc3[nH]2)cc(-n2nc(C)nc2C)n1 [Cpd 89, 2-{(1R,2R)-2-[6-(3,5-dimethyl-1H-1,2,4-triazol-1-yl)-2-methylpyrimidin-4-yl]cyclopropyl}-1H-benzimidazole] |  | 2.6
CCc1nc(C)nn1-c1cc([C@@H]2C[C@H]2c2nc3ccccc3n2C)nc(C)n1 [Cpd 92, 2-{(1R,2R)-2-[6-(5-ethyl-3-methyl-1H-1,2,4-triazol-1-yl)-2-methylpyrimidin-4-yl]cyclopropyl}-1-methyl-1H-benzimidazole] |  | 0.4
Cc1nc([C@H]2C[C@@H]2c2nc3ccccc3s2)cc(-n2nc(C)nc2C)n1 [Cpd 104, 2-{(1S,2S)-2-[6-(3,5-dimethyl-1H-1,2,4-triazol-1-yl)-2-methylpyrimidin-4-yl]cyclopropyl}-1,3-benzothiazole] |  | 69.5
Cc1nc(C)n(-c2cc([C@@H]3C[C@H]3c3nc4ccccc4n3C)nc(OC3CCC3)n2)n1 [Cpd 136, 2-((1R,2R)-2-(2-cyclobutoxy-6-(3,5-dimethyl-1H-1,2,4-triazol-1-yl)pyrimidin-4-yl)cyclopropyl)-1-methyl-1H-benzo[d]imidazole] |  | 0.42

Results, then the compound that gave them:

melting point [°C] | Ki (human PDE10A2) [nM] | SMILES
164 to 165 | 1.2 | Cc1nc(C)n(-c2cc([C@H]3C[C@@H]3c3nc4ccccc4n3C)nc(N(C)C)n2)n1 (relative stereo) [Cpd 114, trans-4-(3,5-dimethyl-1H-1,2,4-triazol-1-yl)-N,N-dimethyl-6-[2-(1-methyl-1H-benzimidazol-2-yl)cyclopropyl]pyrimidin-2-amine]
180 to 185 | 1.2 | Cc1nc(C)n(-c2cc([C@H]3C[C@@H]3c3nc4ccccc4n3C)nc(N3CCCC3)n2)n1 (relative stereo) [Cpd 116, trans-2-{2-[6-(3,5-dimethyl-1H-1,2,4-triazol-1-yl)-2-pyrrolidin-1-ylpyrimidin-4-yl]cyclopropyl}-1-methyl-1H-benzimidazole]
229 to 231 |  | Cc1nc(C)n(-c2cc([C@@H]3C[C@H]3c3nc4ccccc4n3C)nc(C#N)n2)n1 (relative stereo) [Example 21, trans-4-(3,5-dimethyl-1H-1,2,4-triazol-1-yl)-6-(2-(1-methyl-1H-benzo[d]imidazol-2-yl)cyclopropyl)pyrimidine-2-carbonitrile]
133 to 135 | 0.62 | Cc1nc(C)n(-c2cc([C@H]3C[C@@H]3c3nc4ccccc4n3C)nc(OC(C)C)n2)n1 (relative stereo) [Cpd 113, trans-2-{2-[6-(3,5-dimethyl-1H-1,2,4-triazol-1-yl)-2-(1-methylethoxy)pyrimidin-4-yl]cyclopropyl}-1-methyl-1H-benzimidazole]
226 to 228 |  | Cc1nc(C)n(-c2cc([C@H]3C[C@@H]3c3nc4ccccc4n3C)nc(N3CCOCC3)n2)n1 (relative stereo) [Cpd 117, trans-2-{2-[6-(3,5-dimethyl-1H-1,2,4-triazol-1-yl)-2-morpholin-4-ylpyrimidin-4-yl]cyclopropyl}-1-methyl-1H-benzimidazole]
119 to 121 | 1.6 | Cc1nc(C)n(-c2cc([C@H]3C[C@@H]3c3nc4ccccc4n3C)nc(C(N)=O)n2)n1 (relative stereo) [Cpd 130, trans-4-(3,5-dimethyl-1H-1,2,4-triazol-1-yl)-6-[2-(1-methyl-1H-benzimidazol-2-yl)cyclopropyl]pyrimidine-2-carboxamide]
212 to 214 |  | CNc1nc([C@H]2C[C@@H]2c2nc3ccccc3n2C)cc(-n2nc(C)nc2C)n1 (relative stereo) [Example 3, trans-4-(3,5-dimethyl-1H-1,2,4-triazol-1-yl)-N-methyl-6-(2-(1-methyl-1H-benzo[d]imidazol-2-yl)cyclopropyl)pyrimidin-2-amine]
82 to 83 |  | CCOc1nc([C@@H]2C[C@H]2c2nc3ccccc3n2C)cc(-n2nc(C)nc2C)n1 (relative stereo) [Example 14, trans-2-(2-(6-(3,5-dimethyl-1H-1,2,4-triazol-1-yl)-2-ethoxypyrimidin-4-yl)cyclopropyl)-1-methyl-1H-benzo[d]imidazole]
 | 0.54 | CCOc1nc([C@@H]2C[C@H]2c2nc3ccccc3n2C)cc(-n2nc(C)nc2C)n1 [Cpd 63, 2-{(1R,2R)-2-[6-(3,5-dimethyl-1H-1,2,4-triazol-1-yl)-2-ethoxypyrimidin-4-yl]cyclopropyl}-1-methyl-1H-benzimidazole]
 | 1.09 | Cc1nc(C)n(-c2cc([C@@H]3C[C@H]3c3nc4ccccc4n3C)nc(OCCO)n2)n1 [Cpd 64, 2-({4-(3,5-dimethyl-1H-1,2,4-triazol-1-yl)-6-[(1R,2R)-2-(1-methyl-1H-benzimidazol-2-yl)cyclopropyl]pyrimidin-2-yl}oxy)ethanol]
